US8987193B2, “Nisin derivatives and the use thereof” (University College Cork—National University of Ireland, Cork, priority 2008, dated 2015)
Entries after “also recorded” stand apart in the source; their conditions may differ. Ends that are not written are not given here.

How the values were obtained:
C. sporogenes CBC5 = test: Deferred antagonism assay; assay type: cell-based, Clostridium sporogenes; parameters: key: + = Enhanced bioactivity relative to control; − = Bioactivity equal to or less than control; NA = no activity evident; conditions: producing strain
L. monocytogenes EGDe = test: Deferred antagonism assay; assay type: cell-based; conditions: nisin strain; Listeria monocytogenes EDGe
Procedure: (§1) Deferred antagonism assays were performed by replicating strains on GM17 or GM17 x-gal agar plates and allowing them to grow overnight before overlaying with either GM17/BHI/TS/MH agar (0.75% w/v agar) seeded with the appropriate indicator strain. Zone size was calculated as the diameter of the zone of clearing minus the diameter of bacterial growth (5 mm) For higher throughput screening of N20PXX, XM21VX, XXK22T and XXX banks deferred antagonism assays were performed by replicating strains using a 96 pin replicator (Boekel) or spotting 5 μl of a fresh overnight culture on GM17 agar plates and allowing them to grow overnight. […] Additional sets of indicators were employed to further assess/reassess the bioactivity of a number of strains. […] For well-diffusion assays molten agar was cooled to 48° C. and seeded with the appropriate indicator strain. The inoculated medium was rapidly transferred into sterile Petri plates in 50 ml volumes, allowed to solidify and dried. Wells (4.6 mm in diameter) were then made in the seeded plates. Purified nisin and mutant nisins were resuspended in 0.005% acetic acid, serially diluted, 50 μl volumes were dispensed into the aforementioned wells and the plates incubated at 37° C. overnight. Bioactivity was expressed as arbitrary units/ml (AU/ml) and calculated as the reciprocal of the highest dilution that gave a definite zone multiplied by the conversion factor (i.e. 20 when 50 μl was used) (Ryan et al., 1996).

indicator strains = test: Deferred antagonism assays, various indicator strains (summary); assay type: cell-based; conditions: relative to nisin A-producing control; value = strains listed
In short: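 Producer strains were replicated on GM17 or GM17 x-gal agar, grown overnight, then overlaid with GM17, BHI, TS or MH soft agar (0.75% w/v) seeded with the indicator strain. Zone size was taken as the clearing diameter minus the diameter of bacterial growth (5 mm).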

[1] = test system: 30 L. monocytogenes and 3 L. innocua strains; test: Deferred antagonism assay, collection of Listeria strains; assay type: cell-based; conditions: of 30 L. monocytogenes and 3 L. innocua strains
Procedure: as §1

[2] = test system: Listeria monocytogenes 33037; test: Deferred antagonism assay; assay type: cell-based; conditions: nisin strain; L. monocytogenes 33037
Procedure: as §1

[3] = test system: Listeria monocytogenes CD83; test: Deferred antagonism assay; assay type: cell-based; conditions: nisin strain; L. monocytogenes CD83
Procedure: as §1

[4] = test system: Listeria monocytogenes 33225; test: Deferred antagonism assay; assay type: cell-based; conditions: nisin strain; L. monocytogenes 33225
Procedure: as §1

Listeria innocua FH2117 = test: Deferred antagonism assay; assay type: cell-based; conditions: nisin strain
Procedure: as §1

[5] = test system: Listeria monocytogenes 33176; test: Deferred antagonism assay; assay type: cell-based; conditions: nisin strain; L. monocytogenes 33176
Procedure: as §1

[6] = test system: Listeria monocytogenes LO28; test: Deferred antagonism assay; assay type: cell-based; conditions: nisin strain; L. monocytogenes LO28
Procedure: as §1

[7] = test system: Listeria monocytogenes F2365; test: Deferred antagonism assay; assay type: cell-based; conditions: nisin strain; L. monocytogenes F2365
Procedure: as §1

[8] = test system: Listeria monocytogenes SLCC 6793; test: Deferred antagonism assay; assay type: cell-based; conditions: nisin strain; L. monocytogenes SLCC 6793
Procedure: as §1

[9] = test system: Listeria monocytogenes CD1038; test: Deferred antagonism assay; assay type: cell-based; conditions: nisin strain; L. monocytogenes CD1038
Procedure: as §1

[10] = test system: Listeria monocytogenes 33077; test: Deferred antagonism assay; assay type: cell-based; conditions: nisin strain; L. monocytogenes 33077
Procedure: as §1

[11] = test system: Listeria monocytogenes SLCC 4949; test: Deferred antagonism assay; assay type: cell-based; conditions: nisin strain; L. monocytogenes SLCC 4949
Procedure: as §1

[12] = test system: Listeria monocytogenes 33007; test: Deferred antagonism assay; assay type: cell-based; conditions: nisin strain; L. monocytogenes 33007
Procedure: as §1

[13] = test system: Listeria monocytogenes 33116; test: Deferred antagonism assay; assay type: cell-based; conditions: nisin strain; L. monocytogenes 33116
Procedure: as §1

[14] = test system: Listeria monocytogenes 33013; test: Deferred antagonism assay; assay type: cell-based; conditions: nisin strain; L. monocytogenes 33013
Procedure: as §1

[15] = test system: Listeria monocytogenes NRRLB 33038; test: Deferred antagonism assay; assay type: cell-based; conditions: nisin strain; L. monocytogenes NRRLB 33038
Procedure: as §1

[16] = test system: Listeria monocytogenes 33186; test: Deferred antagonism assay; assay type: cell-based; conditions: nisin strain; L. monocytogenes 33186
Procedure: as §1

[17] = test system: Listeria monocytogenes 33090; test: Deferred antagonism assay; assay type: cell-based; conditions: nisin strain; L. monocytogenes 33090
Procedure: as §1

[18] = test system: Listeria monocytogenes 33411; test: Deferred antagonism assay; assay type: cell-based; conditions: nisin strain; L. monocytogenes 33411
Procedure: as §1

[19] = test system: Listeria monocytogenes 33423; test: Deferred antagonism assay; assay type: cell-based; conditions: nisin strain; L. monocytogenes 33423
Procedure: as §1

S. aureus CBC4 = test: Deferred antagonism assay; assay type: cell-based; parameters: key: + = Enhanced bioactivity relative to control; − = Bioactivity equal to or less than control; NA = no activity evident; conditions: producing strain
In short: (§2)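 L. lactis NZ9800 strains expressing nisin A hinge variants were replicated or spotted on GM17 agar, grown overnight, then overlaid with 0.75% w/v agar seeded with indicator. Zone size is the clearing diameter minus 5 mm colony growth.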

L. lactis CBC8 = test: Deferred antagonism assay; assay type: cell-based; parameters: key: + = Enhanced bioactivity relative to control; − = Bioactivity equal to or less than control; NA = no activity evident; conditions: producing strain
In short: as §2

## NisinA M21S (ITSISLCTPGCKTGALMGCNSKTATCHCSIHVSK; not fully specified; also: lantibiotic nisin: dehydrated residues and thioether rings not placed; UniProt P13068 24-57, looked up, variant M21S) [nisin A derivative, hinge substitution M21S]
C. sporogenes CBC5
  Bioactivity relative to control: +
L. monocytogenes EGDe
  Activity score (zone): ++ (++, 6-10 mm zone)
Indicator strains
  Strain(s) against which the derivative (producing strain) displays enhanced bioactivity: L. monocytogenes CBC2 , CBC3, Staph. aureus CBC4, C. sporogenes CBC5 and L. lactis CBC8; also recorded: L. monocytogenes CBC2 , CBC3, S. aureus CBC4, C. sporogenes CBC5, L. lactis CBC8 and an additional 23 L. monocytogenes strains and 3 L. innocua
[1]
  number of strains with enhanced bioactivity (relative to the control): 26
  number of strains with equal levels of bioactivity: 7
[2]
  Activity score (zone): ++ (++, 6-10 mm zone)
[3]
  Activity score (zone): + (+, 1-5 mm zone)
[4]
  Activity score (zone): ++ (++, 6-10 mm zone)
Listeria innocua FH2117
  Activity score (zone): + (+, 1-5 mm zone)
[5]
  Activity score (zone): ++ (++, 6-10 mm zone)
[6]
  Activity score (zone): +++ (+++, <10 mm zone)
[7]
  Activity score (zone): ++ (++, 6-10 mm zone)
[8]
  Activity score (zone): +++ (+++, <10 mm zone)
[9]
  Activity score (zone): ++ (++, 6-10 mm zone)
[10]
  Activity score (zone): ++ (++, 6-10 mm zone)
[11]
  Activity score (zone): + (+, 1-5 mm zone)
[12]
  Activity score (zone): ++ (++, 6-10 mm zone)
[13]
  Activity score (zone): ++ (++, 6-10 mm zone)
[14]
  Activity score (zone): + (+, 1-5 mm zone)
[15]
  Activity score (zone): ++ (++, 6-10 mm zone)
[16]
  Activity score (zone): + (+, 1-5 mm zone)
[17]
  Activity score (zone): + (+, 1-5 mm zone)
[18]
  Activity score (zone): ++ (++, 6-10 mm zone)
[19]
  Activity score (zone): + (+, 1-5 mm zone)
S. aureus CBC4
  Bioactivity relative to control: +
L. lactis CBC8
  Bioactivity relative to control: +
